# Data: ChEMBL document CHEMBL1201862, “PubChem BioAssay data set” (2004)
# Calls of active or inactive are those of the source.
# What was measured:
# DNA topoisomerase = DNA topoisomerase (Yersinia pestis, UniProt A0A2S9PM60); test: Yersinia topoisomerase I cleavage product accumulation – biochemical, cherry-pick, dose response (AID 588525)
# HEK293 [1] = test: HEK293T cell viability loss, resazurin readout – resazurin fluorescence, cytotoxicity control for NF-kB activator project, SAR follow-up (AID 493251); format: functional, cell-based; details: Homo sapiens
# Jurkat = test: SAR Analysis of small molecule inhibitors of T-cell specific antigen receptor-induced NF-kB activation in a Jurkat cell line using a luminescence assay - Set 2. [Related pubchem assays (depositor defined):AID435003, AID435012, AID465]; format: functional, cell-based; details: Homo sapiens
# [2] = molecular target: T1, Microphthalmia-associated transcription factor (Homo sapiens, UniProt O75030); test: reducers of TRPM1 reporter luminescence, concentration series – cell-based, SK-MEL-5, cherry-picked, set 3, MITF inhibitor project, dose response (AID 493073); format: functional;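 note: SK-MEL-5 melanoma cells with luciferase driven by the MITF target TRPM1 promoter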
# T1 sequence (O75030 whole entry): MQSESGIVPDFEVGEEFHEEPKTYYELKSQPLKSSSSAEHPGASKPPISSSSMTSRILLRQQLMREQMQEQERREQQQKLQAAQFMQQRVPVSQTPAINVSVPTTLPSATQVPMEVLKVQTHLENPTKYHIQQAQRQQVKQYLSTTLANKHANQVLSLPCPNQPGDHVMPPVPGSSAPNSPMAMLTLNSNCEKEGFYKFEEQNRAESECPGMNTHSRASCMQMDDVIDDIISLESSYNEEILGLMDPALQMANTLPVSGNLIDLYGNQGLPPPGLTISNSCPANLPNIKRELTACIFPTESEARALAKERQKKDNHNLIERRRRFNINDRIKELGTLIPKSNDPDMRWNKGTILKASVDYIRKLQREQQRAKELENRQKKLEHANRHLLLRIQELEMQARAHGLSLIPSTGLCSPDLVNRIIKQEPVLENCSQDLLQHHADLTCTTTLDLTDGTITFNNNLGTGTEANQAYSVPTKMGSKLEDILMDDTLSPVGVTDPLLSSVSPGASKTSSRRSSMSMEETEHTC
# HEK293 [3] = test: SAR Analysis of small molecule inhibitors of T-cell specific antigen receptor-induced NF-kB activation in a HEK-293T cell line using a luminescence assay - Set 2. [Related pubchem assays (depositor defined):AID435003, AID435012, AID489026]; format: functional, cell-based; details: Homo sapiens
# [4] = molecular target: Heat shock protein HSP 90-alpha (Homo sapiens, UniProt P07900); format: functional, organism-based
# Vero [5] = test: cells; format: functional, cell-based; details: Chlorocebus sabaeus
# Vero [6] = test: cells; format: functional; details: Chlorocebus sabaeus
# A-375 [7] = test: proliferation inhibition in MITF-low A375 cells – cell-based, cherry-pick samples, set 2, counter-screen for MITF modulator project, dose response (AID 540335); format: functional; details: Homo sapiens
# A-375 [8] = test: MITF: Counter assay: A375 proliferation Measured in Cell-Based System Using Plate Reader - 2084-03_Inhibitor_Dose_DryPowder_Activity. [Related pubchem assays (depositor defined):AID488944]; format: functional; details: Homo sapiens
# [9] = A Cell Based Secondary Assay To Explore Cytotoxicity of Compounds that Sensitize Mycobacterium Tuberculosis to Beta-Lactam Antibiotics.; format: functional
# BJ [10] = test: cells; format: functional, cell-based; details: Homo sapiens
# [11] = DRD fibroblast viability loss – cell-based, non-viral oncogenic, luminescence, dose response (AID 1934); format: functional; details: Homo sapiens
# BJ [12] = test: BJ-TERT-LT-ST fibroblast viability loss – cell-based, RAS-independent, luminescence, dose response (AID 1935); format: functional; details: Homo sapiens;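 note: BJ fibroblasts immortalized with TERT plus LT and ST oncogenes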
# BJ [13] = test: BJ-TERT fibroblast viability loss – cell-based, RAS-independent, luminescence, dose response (AID 1933); format: functional; details: Homo sapiens
# [14] = molecular target: Voltage-gated inwardly rectifying potassium channel KCNH2 (Homo sapiens, UniProt Q12809); details: Potency;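 note: confirmatory quantitative high-throughput screen measuring inhibition of hERG channel activity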
# Voltage-gated inwardly rectifying potassium channel KCNH2, sequence (Q12809 whole entry): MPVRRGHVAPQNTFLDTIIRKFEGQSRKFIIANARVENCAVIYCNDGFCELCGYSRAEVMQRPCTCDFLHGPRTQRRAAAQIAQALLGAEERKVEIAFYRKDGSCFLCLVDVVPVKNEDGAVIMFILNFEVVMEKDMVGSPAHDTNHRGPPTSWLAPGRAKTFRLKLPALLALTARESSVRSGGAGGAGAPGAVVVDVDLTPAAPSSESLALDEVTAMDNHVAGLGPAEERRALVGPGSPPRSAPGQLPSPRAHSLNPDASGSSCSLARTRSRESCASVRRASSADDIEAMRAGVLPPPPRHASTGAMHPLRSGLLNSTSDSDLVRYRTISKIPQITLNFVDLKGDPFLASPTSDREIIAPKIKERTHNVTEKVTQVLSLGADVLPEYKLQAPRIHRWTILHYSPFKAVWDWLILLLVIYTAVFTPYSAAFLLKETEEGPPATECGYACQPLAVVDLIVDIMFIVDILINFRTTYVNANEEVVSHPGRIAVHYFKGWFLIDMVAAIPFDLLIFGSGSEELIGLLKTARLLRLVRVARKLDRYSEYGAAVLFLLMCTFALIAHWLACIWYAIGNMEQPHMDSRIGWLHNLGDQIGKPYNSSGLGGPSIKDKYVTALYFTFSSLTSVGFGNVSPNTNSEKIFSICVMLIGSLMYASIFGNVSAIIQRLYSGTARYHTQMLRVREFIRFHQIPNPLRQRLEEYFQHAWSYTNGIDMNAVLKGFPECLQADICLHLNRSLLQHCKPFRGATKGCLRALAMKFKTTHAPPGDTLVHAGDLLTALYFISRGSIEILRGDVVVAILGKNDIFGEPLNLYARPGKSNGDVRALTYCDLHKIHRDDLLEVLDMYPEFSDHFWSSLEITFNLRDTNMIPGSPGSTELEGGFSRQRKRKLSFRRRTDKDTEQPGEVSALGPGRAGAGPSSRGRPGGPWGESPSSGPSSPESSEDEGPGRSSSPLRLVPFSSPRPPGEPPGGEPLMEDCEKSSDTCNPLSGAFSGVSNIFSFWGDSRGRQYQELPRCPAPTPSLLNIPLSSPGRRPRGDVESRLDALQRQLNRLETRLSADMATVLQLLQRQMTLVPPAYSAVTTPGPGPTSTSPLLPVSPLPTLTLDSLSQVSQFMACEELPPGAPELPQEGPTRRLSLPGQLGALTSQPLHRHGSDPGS
# [15] = Trypanosoma cruzi growth suppression in host cells – NIH3T3 host cells, beta-gal luminescence, confirmation (AID 2044); format: functional, cell-based;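 note: intracellular parasites grown in NIH/3T3 mouse fibroblasts as host cells; luminescent beta-galactosidase reporter signal from transgenic T. cruzi replicating inside host cells; inhibitors lower the luminescence signal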
# H9c2 = test: cells; format: functional, cell-based; details: Rattus norvegicus, H9c2, Myocardium;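 note: confirmatory concentration-response retest of ultra-high-throughput screening hits for modulation of myocardial damage; cell death induced by hydrogen peroxide oxidative stress; compound pretreatment for 60 min then peroxide exposure for 2 h; potency is for protecting the cells against peroxide damage rather than for killing them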
# [16] = alpha-synuclein stem-loop luciferase translation blockers – H4 neuroglioma cells, luminescence, confirmation (AID 1988); format: functional, cell-based
# [17] = NIH3T3 cell viability loss – ATP luminescence, mouse fibroblasts, counter-screen, dose response (AID 2010); format: functional, cell-based;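 note: cells exposed to compound for about 90 hours before reading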
# [18] = luciferase reporter signal suppression in cells – H4 neuroglioma cells, luminescence, dose response (AID 1990); format: functional, cell-based
# [19] = Luminescence Cell-Based Dose Response HTS to Identify Inhibitors of 5'UTR Stem-Loop Driven Prion Protein mRNA Translation in H4 Neuroglioblastoma Cells. [Related pubchem assays: 1827 (Project Summary), 1813 (Primary HTS)]; format: functional
# DNA topoisomerase, sequence (A0A2S9PM60 whole entry): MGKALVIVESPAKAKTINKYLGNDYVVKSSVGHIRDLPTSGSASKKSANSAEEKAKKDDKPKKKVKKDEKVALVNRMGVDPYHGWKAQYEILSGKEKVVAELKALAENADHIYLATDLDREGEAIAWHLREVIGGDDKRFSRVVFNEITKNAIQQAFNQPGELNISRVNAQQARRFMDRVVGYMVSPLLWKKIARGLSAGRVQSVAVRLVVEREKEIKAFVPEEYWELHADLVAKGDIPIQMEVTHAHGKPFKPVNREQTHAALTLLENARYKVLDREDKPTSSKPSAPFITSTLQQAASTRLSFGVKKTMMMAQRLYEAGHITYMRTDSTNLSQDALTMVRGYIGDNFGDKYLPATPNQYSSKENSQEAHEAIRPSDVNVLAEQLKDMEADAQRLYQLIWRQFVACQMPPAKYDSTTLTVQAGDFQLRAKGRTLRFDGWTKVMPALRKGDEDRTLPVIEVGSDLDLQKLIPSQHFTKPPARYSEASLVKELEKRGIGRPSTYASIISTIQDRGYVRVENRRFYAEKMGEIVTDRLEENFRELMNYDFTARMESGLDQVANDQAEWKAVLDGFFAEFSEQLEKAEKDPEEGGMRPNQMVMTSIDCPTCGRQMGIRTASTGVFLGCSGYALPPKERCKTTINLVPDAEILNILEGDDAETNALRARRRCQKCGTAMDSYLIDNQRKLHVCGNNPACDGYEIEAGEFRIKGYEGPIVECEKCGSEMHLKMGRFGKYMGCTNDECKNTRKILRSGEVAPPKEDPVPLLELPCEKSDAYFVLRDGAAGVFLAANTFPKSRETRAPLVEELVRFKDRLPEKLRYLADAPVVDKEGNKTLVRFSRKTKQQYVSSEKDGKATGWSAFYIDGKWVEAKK
smiles,measurement,setting,value
CCCOc1ccc(C(=O)Nc2ccc(S(=O)(=O)N3C[C@@H]4C[C@@H](C3)c3cccc(=O)n3C4)cc2)cc1,AC50,DNA topoisomerase,3.3 µM (active)
CN1CCN(c2ccccc2NC(=O)c2ccc([N+](=O)[O-])o2)CC1,IC50,HEK293 [1],23.6 µM (inactive)
same,IC50,Jurkat,24.8 µM (inactive)
same,AC50,[2],4.95 µM (active)
same,IC50,HEK293 [3],15.6 µM (active)
O=[N+]([O-])c1ccc(NC(c2ccccc2)c2ccc3cccnc3c2O)cc1 (stereo unspecified),AC50,[4],3.92 µM (active)
same,IC50,Vero [5],> 25 µM (active)
same,CC50,Vero [6],4.02 µM (active)
NC(=NOC(=O)c1ccncc1)c1cccc([N+](=O)[O-])c1,AC50,A-375 [7],> 35 µM (active)
same,AC50,A-375 [8],> 35 µM (active)
COc1ccc2[nH]cc(C(=O)CCl)c2c1,AC50,A-375 [7],45.9 µM (active)
same,CC50,[9],5.65 µM (active)
same,AC50,[2],5.65 µM (active)
same,EC50,BJ [10],7.02 µM (active)
same,EC50,[11],8.64 µM (active)
same,EC50,BJ [12],7.84 µM (inconclusive)
same,EC50,BJ [13],4.61 µM (active)
N=C1C=CC(=C(c2ccc(N)cc2)c2ccc(N)cc2)C=C1,AC50,[14],44.7 µM (inconclusive)
CC(Oc1cccc(Cl)c1)C(=O)Nc1nc(-c2ccccn2)cs1 (stereo unspecified),IC50,Vero [5],> 25 µM (active)
same,EC50,[15],0.822 µM (active)
same,IC50,H9c2,> 79 µM (inactive)
same,EC50,[16],9.63 µM (active)
same,EC50,[17],6.81 µM (active)
same,CC50,Vero [6],15.8 µM (active)
same,EC50,[18],10.4 µM (active)
same,EC50,[19],11.9 µM (active)
